This is an account of results in paper PMC13395458, “Structural dynamics of IRE1 and its interaction with unfolded peptides” (eLife, 2026).

Experiment [1] deals with hIRE1α. As to conditions: available binding affinities to hIRE1α; fluorescence anisotropy; ref Karagöz et al., 2017; Kettel et al., 2024; cited from earlier work. An excerpt: page 1: Structural Dynamics of IRE1 and its Interaction with Unfolded Peptides Supplementary File 2 Polypeptide K1/2 [µM] […] References Elif Karag¨oz G, Acosta-Alvear D, Nguyen HT, Lee CP, Chu F, Walter P. An unfolded protein-induced conformational switch activates mammalian IRE1. eLife. 2017;6:e30700. Kettel P, Marosits L, Spinetti E, Rechberger M, Giannini C, Radler P, et al. Disordered regions in the IRE1 ER lumenal domain medi ...
On the technique in general: In fluorescence polarisation assays a small probe gives low polarisation when free and higher when bound to something large.

The target of experiment [2] is T1, hIRE1α LD wild-type (Homo sapiens, UniProt O75460).
T1 construct: His6 (N, cleaved yes); made in house; host or cells: Escherichia coli BL21DE3* RIPL
T1 sequence (O75460 24-443): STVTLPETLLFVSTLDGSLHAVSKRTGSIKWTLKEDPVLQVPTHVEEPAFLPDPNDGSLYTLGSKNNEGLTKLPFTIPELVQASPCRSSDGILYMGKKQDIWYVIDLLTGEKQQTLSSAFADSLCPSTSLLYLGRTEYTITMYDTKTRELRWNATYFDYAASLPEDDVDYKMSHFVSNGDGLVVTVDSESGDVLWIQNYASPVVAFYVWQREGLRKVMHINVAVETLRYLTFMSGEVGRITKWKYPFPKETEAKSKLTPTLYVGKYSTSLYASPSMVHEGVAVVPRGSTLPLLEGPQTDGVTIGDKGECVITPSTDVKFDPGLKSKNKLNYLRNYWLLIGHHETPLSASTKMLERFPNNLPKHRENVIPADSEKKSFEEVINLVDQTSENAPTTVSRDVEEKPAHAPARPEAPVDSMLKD
The experiment in a line: Fluorescence anisotropy, binding of labeled MPZ1N-2X to hIRE1α LD WT. Here is the method: (§1) To express hIRE1α LD (24–443) human cDNA sequences were cloned into pET47b(+) to create a coding sequence with N-terminal His6-tag. Mutations of hIRE1α LD were introduced by overlap extension PCR and restriction cloning into pET47b(+). For expression of the proteins, the plasmid of interest was transformed into Escherichia coli strain BL21DE3* RIPL (Agilent Technologies). Cells were grown in Luria Broth until OD600 = 0.6–0.8. Protein expression was induced with 0.6 mM IPTG, and cells were grown in 20°C overnight. For purification, cells after harvesting were resuspended in Lysis Buffer (50 mM HEPES pH 7.2, 400 mM NaCl, 20 mM imidazole, 5% glycerol, 5 mM β -mercaptoethanol) and were lysed in Constans Systems cell disruptor at 25,000 psi. […] Protein concentrations were determined using the extinction coefficient at 280 nm predicted by the Expasy ProtParam tool (http://web.expasy.org/protparam/).
(§2) For fluorescence anisotropy measurements, the MPZ1-N-2X peptide attached to 5 carboxyfluorescein (5-FAM) at its N-terminus was obtained from GenScript at >95% purity. Binding affinities of hIRE1α LD mutants to FAM-labeled peptides were determined by measuring the change in fluorescence anisotropy on a Tecan CM Spark Micro Plate Reader with excitation at 485 nm and emission at 525 nm with increasing concentrations of hIRE1α LD variants. […]

Experiment [3] deals with T2, hIRE1α LD E102R (Homo sapiens, UniProt O75460, E102R).
T2 construct: His6 (N, cleaved yes); made in house; host or cells: Escherichia coli BL21DE3* RIPL
T2 sequence (O75460 24-443 E102R): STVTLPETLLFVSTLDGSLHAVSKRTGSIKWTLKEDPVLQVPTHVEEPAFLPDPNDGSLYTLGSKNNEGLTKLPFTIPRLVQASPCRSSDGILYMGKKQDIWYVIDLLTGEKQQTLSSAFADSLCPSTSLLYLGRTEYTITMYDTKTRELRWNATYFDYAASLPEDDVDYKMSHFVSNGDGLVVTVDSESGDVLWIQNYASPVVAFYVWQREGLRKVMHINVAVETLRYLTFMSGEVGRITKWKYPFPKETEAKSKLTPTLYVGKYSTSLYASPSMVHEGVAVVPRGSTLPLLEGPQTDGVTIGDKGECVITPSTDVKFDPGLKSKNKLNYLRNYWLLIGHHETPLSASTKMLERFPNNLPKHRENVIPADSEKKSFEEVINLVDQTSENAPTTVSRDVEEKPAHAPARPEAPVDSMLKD
Kind of experiment: Fluorescence anisotropy, binding of labeled MPZ1N-2X to hIRE1α LD E102R. Here is the method:
as §1, §2

In experiment [4] the target is T3, hIRE1α LD Y161R (Homo sapiens, UniProt O75460, Y161R).
T3 construct: His6 (N, cleaved yes); made in house; host or cells: Escherichia coli BL21DE3* RIPL
T3 sequence (O75460 24-443 Y161R): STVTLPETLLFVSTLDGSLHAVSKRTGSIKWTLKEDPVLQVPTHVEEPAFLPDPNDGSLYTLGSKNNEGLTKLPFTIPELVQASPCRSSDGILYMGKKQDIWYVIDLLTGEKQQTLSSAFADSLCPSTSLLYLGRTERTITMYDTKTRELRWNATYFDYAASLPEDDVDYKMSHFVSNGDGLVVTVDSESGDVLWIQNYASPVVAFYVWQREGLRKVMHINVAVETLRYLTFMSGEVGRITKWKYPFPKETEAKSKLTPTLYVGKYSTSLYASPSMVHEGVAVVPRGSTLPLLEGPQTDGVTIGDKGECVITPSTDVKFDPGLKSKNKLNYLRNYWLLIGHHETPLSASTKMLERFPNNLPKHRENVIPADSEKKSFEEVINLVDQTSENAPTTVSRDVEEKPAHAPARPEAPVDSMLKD
The experiment in a line: Fluorescence anisotropy, binding of labeled MPZ1N-2X to hIRE1α LD Y161R. Particulars: 95% confidence interval of KD. Here is the method:
as §1, §2

In experiment [5] the target is T4, MPZ1N-2X peptide, 5-FAM labelled (5 carboxyfluorescein (5-FAM) at its N-terminus).
T4 construct: model unfolded peptide derived from Myelin Protein Zero (MPZ); not a plain stretch of the natural protein; source: synthetic peptide; bought: GenScript (>95% purity)
T4 peptide: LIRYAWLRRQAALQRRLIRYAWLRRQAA
Kind of experiment: fluorescence polarisation; fluorescence anisotropy; 90 nM 5-FAM-labelled peptide with increasing concentrations of hIRE1α LD variants; 25 mM HEPES pH 7.2, 150 mM NaCl, 2 mM DTT, 0.025% Tween 20; 30 min at 25°C; Hill fit, apparent K1/2 (does not reflect the dissociation constant). Particulars: both partners purified.

Where [6] appears, read: 95% confidence interval of KD, read-out: KD 95% confidence interval.

Where two headings read alike, the source gives them in different places. Ends that are not written are not given here.

“LIDYAWLDDQAALQDDLIDYAWLDDQAA [MPZ1N-2X-RD, MPZ1N-2X with all the arginines mutated to aspartic acid]”: in experiment [1], the K1/2 entry is “binding impaired”.

“LIRYAWLRRQAA [MPZ1-N, unfolded peptide derived from Myelin Protein Zero, …]”: the K1/2 in experiment [1] was 16 µM.

In general, Kd refers to the equilibrium constant for the complex coming apart. For the molecule LIRYAWLRRQAALQRRLIRYAWLRRQAA [MPZ1N-2X], the Kd is 1.81 to 2.53 µM in experiment [2] (setting [6]); 2.14 µM in experiment [2] (fluorescence anisotropy, 5-FAM-labeled peptide 90 nM, pH 7.2, 30 min, 25°C, R2 0.9918, read-out: KD); 5.84 to 6.96 µM in experiment [3] (setting [6]); 6.35 µM in experiment [3] (fluorescence anisotropy, 5-FAM-labeled peptide 90 nM, pH 7.2, 30 min, 25°C, R2 0.9992, read-out: KD); 4.3 to 7.1 µM in experiment [4]. Regarding “LQRRISAME [MPZ1-C, peptide derived from Myelin Protein Zero, …]”, the K1/2 in experiment [1] is on record as 572 µM.

B1: human IRE1α luminal domain (hIRE1α LD, 24–443), wild type (domain or fragment, UniProt O75460 24-443, looked up)
chain: STVTLPETLLFVSTLDGSLHAVSKRTGSIKWTLKEDPVLQVPTHVEEPAFLPDPNDGSLYTLGSKNNEGLTKLPFTIPELVQASPCRSSDGILYMGKKQDIWYVIDLLTGEKQQTLSSAFADSLCPSTSLLYLGRTEYTITMYDTKTRELRWNATYFDYAASLPEDDVDYKMSHFVSNGDGLVVTVDSESGDVLWIQNYASPVVAFYVWQREGLRKVMHINVAVETLRYLTFMSGEVGRITKWKYPFPKETEAKSKLTPTLYVGKYSTSLYASPSMVHEGVAVVPRGSTLPLLEGPQTDGVTIGDKGECVITPSTDVKFDPGLKSKNKLNYLRNYWLLIGHHETPLSASTKMLERFPNNLPKHRENVIPADSEKKSFEEVINLVDQTSENAPTTVSRDVEEKPAHAPARPEAPVDSMLKD
notes: Inositol-requiring enzyme 1 alpha (IRE1α), human, luminal domain, residues 24-443, cloned from human cDNA into pET47b(+); also called hIRE1α LD WT; WT; source: E. coli BL21DE3* RIPL, purified (Ni-NTA, HiTRAP-Q, Superdex 200); not shown: His6, N-terminal, cleaved
For B1, the “K1/2 (apparent)” value in experiment [5] turned out to be 2.14 µM.

B2: human IRE1α luminal domain (hIRE1α LD, 24–443) Y161R (domain or fragment, UniProt O75460 24-443, looked up)
chain: STVTLPETLLFVSTLDGSLHAVSKRTGSIKWTLKEDPVLQVPTHVEEPAFLPDPNDGSLYTLGSKNNEGLTKLPFTIPELVQASPCRSSDGILYMGKKQDIWYVIDLLTGEKQQTLSSAFADSLCPSTSLLYLGRTERTITMYDTKTRELRWNATYFDYAASLPEDDVDYKMSHFVSNGDGLVVTVDSESGDVLWIQNYASPVVAFYVWQREGLRKVMHINVAVETLRYLTFMSGEVGRITKWKYPFPKETEAKSKLTPTLYVGKYSTSLYASPSMVHEGVAVVPRGSTLPLLEGPQTDGVTIGDKGECVITPSTDVKFDPGLKSKNKLNYLRNYWLLIGHHETPLSASTKMLERFPNNLPKHRENVIPADSEKKSFEEVINLVDQTSENAPTTVSRDVEEKPAHAPARPEAPVDSMLKD
notes: Inositol-requiring enzyme 1 alpha (IRE1α), human, luminal domain, residues 24-443, with Y161R introduced by overlap extension PCR; source: E. coli BL21DE3* RIPL, purified (Ni-NTA, HiTRAP-Q, Superdex 200); not shown: His6, N-terminal, cleaved
As for B2, the “K1/2 (apparent)” value in experiment [5] was 5.4 µM.

B3: human IRE1α luminal domain (hIRE1α LD, 24–443) E102R (domain or fragment, UniProt O75460 24-443, looked up)
chain: STVTLPETLLFVSTLDGSLHAVSKRTGSIKWTLKEDPVLQVPTHVEEPAFLPDPNDGSLYTLGSKNNEGLTKLPFTIPRLVQASPCRSSDGILYMGKKQDIWYVIDLLTGEKQQTLSSAFADSLCPSTSLLYLGRTEYTITMYDTKTRELRWNATYFDYAASLPEDDVDYKMSHFVSNGDGLVVTVDSESGDVLWIQNYASPVVAFYVWQREGLRKVMHINVAVETLRYLTFMSGEVGRITKWKYPFPKETEAKSKLTPTLYVGKYSTSLYASPSMVHEGVAVVPRGSTLPLLEGPQTDGVTIGDKGECVITPSTDVKFDPGLKSKNKLNYLRNYWLLIGHHETPLSASTKMLERFPNNLPKHRENVIPADSEKKSFEEVINLVDQTSENAPTTVSRDVEEKPAHAPARPEAPVDSMLKD
notes: Inositol-requiring enzyme 1 alpha (IRE1α), human, luminal domain, residues 24-443, with E102R introduced by overlap extension PCR; source: E. coli BL21DE3* RIPL, purified (Ni-NTA, HiTRAP-Q, Superdex 200); not shown: His6, N-terminal, cleaved
For B3, the “K1/2 (apparent)” value in experiment [5] is 6.35 µM.
